Our source for the IC50 values is ChEMBL document CHEMBL1124021, “Novel type of potential anticancer agents derived from chrysophanol and emodin. Some structure-activity relationship studies” (1988).

A value given as a limit tells only on which side of the number the result lay.

The test system of this test is L1210. Description: In vitro inhibition of L1210 mouse leukemia cell proliferation. Format: functional. As to conditions: read-out: ID50 (the source's name).

Take `COc1cc(OC)c2c(c1)C(=O)c1cc(CN(CCCl)CCCl)cc(OC)c1C2=O`: the IC50 was found to be 2.66 µM.
Take `CCN(CC)Cc1cc(O)c2c(c1)C(=O)c1cc(OC)cc(O)c1C2=O`: the IC50 turned out to be 1.16 µM.
With `COc1cccc2c1C(=O)c1c(O)cc(CN(CCO)CCO)cc1C2=O` the figure was 23.4 µM.
Turning to `COc1cc(OC)c2c(c1)C(=O)c1cc(CN(CCO)CCO)cc(OC)c1C2=O`, the IC50 was more than 27.6 µM.
Consider `O=C1c2cccc(O)c2C(=O)c2c(O)cc(CN(CCCl)CCCl)cc21`, for which the IC50 was 0.13 µM.
For the compound `CCN(CC)Cc1cc(OC)c2c(c1)C(=O)c1cc(OC)cc(OC)c1C2=O`, the IC50 came to 6.91 µM.
For `COc1cccc2c1C(=O)c1c(OC)cc(CN(CCCl)CCCl)cc1C2=O`, the IC50 turned out to be 12.5 µM.
On to `CCN(CC)Cc1cc(OC)c2c(c1)C(=O)c1cccc(OC)c1C2=O`, for which the IC50 amounted to 128 µM.
`O=C1c2cccc(O)c2C(=O)c2c(O)cc(CN(CCO)CCO)cc21`: the IC50 was found to be 5.92 µM.
`CCN(CC)Cc1cc(O)c2c(c1)C(=O)c1cccc(O)c1C2=O`: the IC50 was found to be 2.75 µM.
With `COc1cc(O)c2c(c1)C(=O)c1cc(CN(CCO)CCO)cc(O)c1C2=O`, the IC50 came out at 13.7 µM.
On to `COc1cc(O)c2c(c1)C(=O)c1cc(CN(CCCl)CCCl)cc(O)c1C2=O`, for which the IC50 turned out to be 0.023 µM.
`COc1cc(CN(CCCl)CCCl)cc2c1C(=O)c1c(O)cccc1C2=O`: the IC50 was determined as 1.4 µM.
With `COc1cc(OC)c2c(c1)C(=O)c1cc(CN(CCCl)CCCl)cc(O)c1C2=O` the figure was 1.75 µM; with `CCN(CC)Cc1cc(OC)c2c(c1)C(=O)c1cccc(O)c1C2=O`, 11.9 µM; with `COc1cccc2c1C(=O)c1c(OC)cc(CN(CCO)CCO)cc1C2=O`, more than 50 µM.
As to `Cc1cc(O)c2c(c1)C(=O)c1cccc(O)c1C2=O` [CHRYSOPHANOL], the IC50 was more than 393 µM.
Regarding `Cc1cc(O)c2c(c1)C(=O)c1cc(O)cc(O)c1C2=O` [EMODIN], the IC50 is 13.3 µM.
